From ChEMBL document CHEMBL1201862, “PubChem BioAssay data set” (2004) come the findings set out here.

Molecules are shown by their SMILES.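 These data come from cells grown in 96-well plates and exposed to compound for 48 hours at five concentrations. GI50 marks 50% less growth.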 Activity calls are given as the source filed them. No stated cut-off is given here; in the data, active = GI50 up to about 1.1 µM and inactive = higher. Some results are limits rather than exact numbers.

Holding throughout (assay): NCI tumour cell line growth inhibition, 48 h
Test [1] concerns CCRF-CEM.
The test system of test [2] is EKVX.
In test [3] the test system is HCT-116.
For test [4], the system named is HCT-15.
Test [5] deals with HOP-92.
For test [6], the system named is MDA-MB-435.
The test system of test [7] is MOLT-4.
Test [8] relates to Malme-3M.
The test system of test [9] is NCI-H460.
Test [10] concerns NCI/ADR-RES.
In test [11] the test system is RXF 393.
Test [12] concerns SF-268.
Test [13] has as its system SF-539.
For test [14], the system named is SK-MEL-28.
Test [15] deals with SK-MEL-5.
Test [16] concerns SN12C.
The test system of test [17] is SW-620.
Test [18] deals with TK-10.
Test [19] has as its system U-251.
The test system of test [20] is HOP-62.

Turning to `O=C(Sc1n[nH]c(=O)[nH]c1=O)c1cccc2nc3ccccc3nc12`, the GI50 in test [1] is > 100 µM (inactive); in [2] it was > 100 µM (inactive); in [3] it was > 100 µM (inactive); in test [4], 26.7 µM; in test [5] it was > 100 µM (inactive); in [6], 13.7 µM (inactive). The GI50 in test [7] was > 100 µM (inactive); in test [8], 5.64 µM (inactive); in [9], 8.63 µM (inactive); in [10], > 100 µM (inactive); in test [11] it was > 100 µM (inactive); in test [12], > 100 µM (inactive). Also, the GI50 was 35.6 µM (inactive) in [13]; 30.7 µM (inactive) in [14]; 3.41 µM (inactive) in [15]; 34.3 µM (inactive) in [16]; 41.2 µM (inactive) in [17]; > 100 µM (inactive) in test [18]. The GI50 in test [19] is > 100 µM (inactive).
With `COc1ccccc1NC(=S)NNC(=O)c1cc(-c2ccccc2)nc2ccccc12`, the GI50 is 2.08 µM (inactive) in test [1]; 6.22 µM (inactive) in test [3]; 4.11 µM in test [4]; 11.7 µM (inactive) in test [20]; 12.8 µM (inactive) in [5]; 3.18 µM (inactive) in test [6]. The GI50 in [7] was 4.3 µM (inactive); in test [8], 4.69 µM (inactive); in test [9], 13.2 µM (inactive); in [10] it was 12.8 µM (inactive); in test [11], 3.27 µM (inactive); in test [12], 17.5 µM (inactive). In addition, the GI50 in test [13] is 11.5 µM (inactive); in test [14], 10.4 µM (inactive); in [15], 5.81 µM (inactive); in test [16], 14.7 µM (inactive); in test [17], 7.76 µM (inactive); in test [18] it was 26.5 µM (inactive). In addition, in test [19], the GI50 is 9.59 µM (inactive).
In the case of `CC(=O)O[C@H]1C(=O)N(c2cc3c4ccccc4ccc3c3ccccc23)[C@@H]1c1ccccc1`, the GI50 was 3.76 µM (inactive) in test [1]; 14.6 µM (inactive) in [2]; 3.21 µM (inactive) in test [3]; 3.85 µM in test [4]; 5.16 µM (inactive) in test [20]; 17.5 µM (inactive) in test [5]. Besides, the GI50 is 1.61 µM (inactive) in test [6]; 7.69 µM (inactive) in test [7]; 5.38 µM (inactive) in [8]; 4.31 µM (inactive) in test [9]; 4.38 µM (inactive) in test [10]; 2.72 µM (inactive) in test [11]. The GI50 in [12] was 7.24 µM (inactive); in test [13] it was 3.89 µM (inactive); in [14] it was 10.4 µM (inactive); in [15] it was 3.24 µM (inactive); in test [16] it was 11 µM (inactive); in [18], 12.8 µM (inactive). In test [19], the GI50 was 7.33 µM (inactive).
Consider `COC(=O)[C@@H](NC(=O)N(CCC#N)CCCN(C(=O)N[C@H](Cc1ccccc1)C(=O)OC)c1ccccc1)C(C)C`, for which the GI50 in test [1] was 85.1 µM (inactive); in test [2], > 100 µM (inactive); in test [3] it was > 100 µM (inactive); in [4], 86.3 µM; in test [20], > 100 µM (inactive); in [5], 29.9 µM (inactive). Further, the GI50 was 57.1 µM (inactive) in test [6]; 23 µM (inactive) in test [7]; 28.1 µM (inactive) in test [8]; > 100 µM (inactive) in [10]; 95.9 µM (inactive) in test [11]; 84.1 µM (inactive) in [12]. Moreover, the GI50 is > 100 µM (inactive) in test [13]; 34.3 µM (inactive) in test [14]; 62.2 µM (inactive) in [15]; > 100 µM (inactive) in [16]; > 100 µM (inactive) in test [17]; > 100 µM (inactive) in test [18]. Also, the GI50 in test [19] is > 100 µM (inactive).
For `Cc1ccc(C(C2C(=O)N(C)C(=O)N(C)C2=O)C(F)(F)C(=O)N(C)C)cc1` (stereo not drawn), the GI50 in [1] was > 100 µM (inactive); in [2], > 100 µM (inactive); in test [3] it was > 100 µM (inactive); in [4], over 100 µM; in test [20], > 100 µM (inactive); in [5] it was > 100 µM (inactive). Besides, the GI50 in test [6], in test [8], in [9], in [10], in test [11] and in [12] was > 100 µM (inactive) throughout. Besides, the GI50 is 45.3 µM (inactive) in test [13]; > 100 µM (inactive) in test [14]; > 100 µM (inactive) in [15]; > 100 µM (inactive) in [17]; > 100 µM (inactive) in [18]; > 100 µM (inactive) in [19].
For `CC1(C)CCCC2(C)C3=C(CCC12)C(=O)OC3` (stereo not drawn), the GI50 in [1] was > 100 µM (inactive); in [2], > 100 µM (inactive); in test [3], > 100 µM (inactive); in [4], 87.9 µM; in test [20] it was > 100 µM (inactive); in test [5], > 100 µM (inactive). Further, the GI50 in test [6] is > 100 µM (inactive); in test [7] it was 18.3 µM (inactive); in test [8] it was > 100 µM (inactive); in test [10], 86.3 µM (inactive); in test [11], 62.2 µM (inactive); in [12], > 100 µM (inactive). In addition, the GI50 was > 100 µM (inactive) in [13]; > 100 µM (inactive) in [14]; 42.7 µM (inactive) in test [15]; > 100 µM (inactive) in [16]; > 100 µM (inactive) in test [17]; > 100 µM (inactive) in [18]. Besides, the GI50 in test [19] was > 100 µM (inactive).
As to `C=CCO/N=C/c1cc(/N=C(/S)c2ccoc2C)ccc1Cl`, the GI50 in [1] was 33.3 µM (inactive); in test [2] it was 11.9 µM (inactive); in [3], 10.9 µM (inactive); in [4], 8.26 µM; in test [20], 14.4 µM (inactive); in test [5] it was 17.3 µM (inactive). In addition, the GI50 in [6] is 19.1 µM (inactive); in test [7], 5.71 µM (inactive); in test [8], 15 µM (inactive); in test [10], 7.26 µM (inactive); in [11], 21.3 µM (inactive); in [12], 14.8 µM (inactive). For the same compound, the GI50 was 25.4 µM (inactive) in test [13]; 37.8 µM (inactive) in test [14]; 11.4 µM (inactive) in test [15]; 12.8 µM (inactive) in [16]; 33.8 µM (inactive) in test [17]; 16.6 µM (inactive) in [18]. In [19], the GI50 was 13.9 µM (inactive).
With `Cc1cccc(Nc2cnc(N)nc2N)c1`, the GI50 in [1] was > 100 µM (inactive); in [2], > 100 µM (inactive); in test [3], > 100 µM (inactive); in test [4], over 100 µM; in test [20] it was > 100 µM (inactive); in test [5] it was > 100 µM (inactive). In addition, the GI50 in test [6] is > 100 µM (inactive); in test [7] it was > 100 µM (inactive); in test [8], > 100 µM (inactive); in test [10], > 100 µM (inactive); in test [11] it was 98.9 µM (inactive); in test [13], > 100 µM (inactive). Further, the GI50 in test [14], in test [15], in [16], in [17], in [18] and in test [19] was > 100 µM (inactive) in each case.
Take `Cc1nc2ccc(F)cc2c(Cl)c1CCCl`: the GI50 in test [1] is 18.6 µM (inactive); in test [2], 13.9 µM (inactive); in [3] it was 26 µM (inactive); in test [4] it was 34.3 µM; in test [20], 84.9 µM (inactive); in [5], 36 µM (inactive). For the same compound, the GI50 was 26.9 µM (inactive) in test [6]; 21.3 µM (inactive) in test [7]; 31.6 µM (inactive) in test [8]; 30.5 µM (inactive) in test [9]; 43 µM (inactive) in test [10]; 21.7 µM (inactive) in test [11]. The GI50 in [12] was 37.1 µM (inactive); in test [13], 67.3 µM (inactive); in test [14], 40.3 µM (inactive); in test [15], 22 µM (inactive); in test [17] it was 39.5 µM (inactive); in [18], 62.8 µM (inactive). The GI50 in [19] was 30.4 µM (inactive).
On to `O=C1NC(=O)C(C(CC(=O)c2ccc([N+](=O)[O-])cc2)c2ccccc2)C(=O)N1` (stereo not drawn), for which the GI50 in [1] is 35.2 µM (inactive); in [3], 14.8 µM (inactive); in test [4], over 100 µM; in [20], > 100 µM (inactive); in test [5] it was > 100 µM (inactive); in test [6] it was 49.8 µM (inactive). Further, the GI50 was 73.3 µM (inactive) in test [7]; 0.0334 µM (active) in test [8]; > 100 µM (inactive) in [9]; > 100 µM (inactive) in [10]; 2.77 µM (inactive) in [11]; 19.9 µM (inactive) in test [12]. Also, the GI50 was > 100 µM (inactive) in test [13]; > 100 µM (inactive) in test [14]; 41.6 µM (inactive) in test [15]; > 100 µM (inactive) in test [16]; 29.2 µM (inactive) in test [17]; 0.0471 µM (active) in test [18]. In [19], the GI50 is 49.4 µM (inactive).
